Laboratory results: EP4763845A1, “CYANO AROMATIC RING DERIVATIVE AND PHARMACEUTICAL USE THEREOF” (Haisco Pharmaceutical Group Co., Ltd., priority 2023, dated 2025)

Experiments:
AR protein = target: T1, AR protein (Homo sapiens, UniProt P10275); test: Detection of AR degradation in VCaP cells (automated western blot); assay type: cell-based; conditions: degradation of AR protein in VCaP cells, 24 hours incubation; read-out: DC50
T1 construct: VCap is a human prostate cancer cell line purchased from ATCC; host or cells: VCaP human prostate cancer cells
T1 sequence (P10275 1-920): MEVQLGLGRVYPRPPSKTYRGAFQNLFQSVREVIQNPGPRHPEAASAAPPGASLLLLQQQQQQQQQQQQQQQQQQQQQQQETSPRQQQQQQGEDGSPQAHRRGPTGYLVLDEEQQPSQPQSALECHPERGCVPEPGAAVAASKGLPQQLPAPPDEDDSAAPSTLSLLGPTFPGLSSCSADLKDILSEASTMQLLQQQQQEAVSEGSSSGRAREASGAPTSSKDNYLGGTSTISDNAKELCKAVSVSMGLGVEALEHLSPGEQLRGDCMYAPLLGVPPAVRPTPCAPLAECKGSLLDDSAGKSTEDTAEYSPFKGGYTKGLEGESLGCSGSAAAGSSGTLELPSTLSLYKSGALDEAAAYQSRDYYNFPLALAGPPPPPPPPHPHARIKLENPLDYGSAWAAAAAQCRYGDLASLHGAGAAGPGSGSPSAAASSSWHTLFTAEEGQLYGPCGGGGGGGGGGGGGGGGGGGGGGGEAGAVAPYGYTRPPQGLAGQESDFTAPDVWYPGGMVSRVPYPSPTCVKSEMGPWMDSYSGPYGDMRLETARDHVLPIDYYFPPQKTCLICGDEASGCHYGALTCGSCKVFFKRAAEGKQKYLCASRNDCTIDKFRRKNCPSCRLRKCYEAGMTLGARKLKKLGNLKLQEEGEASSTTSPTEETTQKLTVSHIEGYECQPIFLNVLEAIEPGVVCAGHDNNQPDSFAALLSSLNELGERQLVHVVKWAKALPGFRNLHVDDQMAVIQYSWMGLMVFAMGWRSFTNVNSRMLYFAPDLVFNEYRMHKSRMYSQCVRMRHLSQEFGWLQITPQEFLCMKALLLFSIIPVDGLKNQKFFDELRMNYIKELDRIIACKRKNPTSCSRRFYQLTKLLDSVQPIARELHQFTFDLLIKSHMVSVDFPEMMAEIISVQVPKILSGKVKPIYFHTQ
Method in brief: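 VCaP cells (5 × 10^5/well) were treated with compounds at various concentrations for 24 h at 37°C. Lysate AR level was quantified by automated capillary western blot, normalised to β-actin and expressed relative to solvent control. DC50 came from four-parameter nonlinear regression; degradation rate = 100 − AR%.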

[1] = tested on: Human CD34+ Hematopoietic stem cells; test: Human CD34+ hematopoietic stem cell proliferation inhibition experiment; assay type: cell-based; conditions: 168 h, inhibitory activity against the proliferation of CD34+ hematopoietic stem cells, 7 days
Experimental: Human CD34+ Hematopoietic stem cells (TPCS, Cat.hmPB34-P-2CW) are CD34-positive stem cells obtained from human PBMCs through immunomagnetic bead sorting. The culture conditions are as follows: DPBS (Gibco, Cat.14190-144) +StemSpan SFEM II ([…], Cat.9655) +1X StemSpan CD34+ Expansion Supplement ([…], Cat.2691). First, 40 nL of DMSO, the positive reference compound Talazoparib, or the test compounds were respectively added to a 384-well plate (Corning, Cat. 3764). Then, a cell suspension was added at 400 cells per well in 40 µL of medium, resulting in final concentrations of 0.1% DMSO, 3 µM Talazoparib, or various concentrations of the compounds in each well. The plate was centrifuged at room temperature at 1000 rpm for 1 minute, followed by incubation for 7 days in a 37°C, 5% CO2 incubator. Following incubation, 20 µL of CellTiter-Glo Reagent (Promega, Cat. G7573) was directly added to each well, and the plate was centrifuged at room temperature at 1000 rpm for 1 minute, followed by incubation for 20 minutes in the dark. Following incubation, the chemiluminescent signal (CFU) was read and recorded using an Envision multimode microplate reader (PerkinElmer, Cat. 2104). The cell proliferation inhibition rate at various compound concentrations was calculated according to Equation (3), where CFUhigh control represents the average signal value of the DMSO group, CFUlow control represents the average signal value of the Talazoparib group, and CFUcompound represents the average signal value of the compound-treated group. The processed data obtained from Equation (3) were analysed using XLfit or GraphPad Prism software, and a four-parameter curve fitting model was applied to calculate the compound concentration corresponding to a 50% inhibition rate, i.e., the IC50 value. Inhibition% = (CFUhigh control−CFUcompound)/(CFUhigh control−CFUlow control) × 100% [formula]

For `CC1(C)[C@H](NC(=O)c2ccc(N3CCC(CN4CCN5c6cc(F)c(C7CCC(=O)NC7=O)cc6CC[C@H]5C4)CC3)cc2)C(C)(C)[C@H]1Oc1ccc(C#N)c2ncccc12` (some centres unmarked) [Compound 31], the DC50 (AR protein) was < 0.1 µM and the IC50 [1] was > 10 µM.
